# Reference: patent US20160151337A1, “ANNELATED PYRROLES AND THEIR USE AS CRAC INHIBITORS” (Grünenthal GmbH, priority 2013, published 2016)
# Assays:
# [1] = biological target: T1, CRAC channel (Homo sapiens, UniProt Q96D31); experiment: HEK Calcium Influx Assay (FLIPR), inhibition of store-operated Ca2+ entry after thapsigargin store depletion; assay type: cell-based; details: 10 μM compound, HEK293 cells, read-out: % inhib. [@ 10 μM] FLIPR
# T1 construct: endogenous in cells; host or cells: HEK293 (ECACC), untransfected
# Outline: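 HEK293 cells loaded with Calcium-4 dye in Ca2+-free HBS (pH 7.4), stores depleted with 2 μM thapsigargin for 10 min (100 μM EGTA); after 3 mM CaCl2 re-addition and 15 min steady-state, compounds added and FLIPR signal averaged 9.5–10 min post-dose. IC50 from 8-point 1:3.16 dilutions from 10 μM, normalised to DMSO and non-depleted wells.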
# [2] = tested on: Interleukin-2 (IL-2) production/release in Jurkat T cells; experiment: Jurkat IL-2 Production Assay (PHA-stimulated, IL-2 AlphaLisa); assay type: cell-based; details: Homo sapiens, PHA 15 μg/ml, 22 h, inhibition of IL-2 production
# Outline: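 Jurkat E6-1 cells (5*10^5/well, DMEM/F12 with 10% FCS) pretreated 30 min with compound, then stimulated 22 h with 15 μg/ml PHA at 37 °C. IC50 from 8-point 1:3.16 dilution starting at 10 μM.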
# T1 sequence (Q96D31 whole entry): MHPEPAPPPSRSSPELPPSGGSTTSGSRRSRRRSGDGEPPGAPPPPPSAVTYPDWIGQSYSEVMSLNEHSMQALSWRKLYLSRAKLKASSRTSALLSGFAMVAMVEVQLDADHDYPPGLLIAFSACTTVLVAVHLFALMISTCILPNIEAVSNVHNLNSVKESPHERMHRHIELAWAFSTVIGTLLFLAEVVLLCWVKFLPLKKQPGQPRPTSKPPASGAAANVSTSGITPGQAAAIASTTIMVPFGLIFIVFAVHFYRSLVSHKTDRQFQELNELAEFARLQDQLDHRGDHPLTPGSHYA
Compound,inhibition at 10 µM [1],IC50 [2]
"COc1cc(OC(F)F)ncc1N1CCc2[nH]c(-c3c(F)cccc3F)cc2C1 [Example 140, 5-[6-(Difluoro-methoxy)-4-methoxy-pyridin-3-yl]-2-(2,6-difluoro-phenyl)-4,5,6,7-tetrahydro-1H-pyrrolo[3,2-c]pyridine]",> 70%,< 0.5 µM
"Cc1sc(-c2ccccc2)nc1N1CCc2[nH]c(-c3c(F)cccc3F)cc2C1 [Example 23, 4-[2-(2,6-Difluoro-phenyl)-4,5,6,7-tetrahydro-1H-pyrrolo[3,2-c]pyridin-5-yl]-5-methyl-2-phenyl-thaizole]",< 50%,1 to 5 µM
"Cc1cc(S(=O)(=O)N(C)C)ccc1N1CCc2[nH]c(-c3c(F)cccc3F)cc2C1 [Example 14, 4-[2-(2,6-Difluoro-phenyl)-4,5,6,7-tetrahydro-1H-pyrrolo[3,2-c]pyridin-5-yl]-N,N,3-trimethyl-benzenesulfonic acid amide]",< 50%,< 0.5 µM
"Cc1ccccc1N1CCc2[nH]c(-c3c(F)cccc3F)cc2C1 [Example 22, 2-(2,6-Difluoro-phenyl)-5-o-tolyl-4,5,6,7-tetrahydro-1H-pyrrolo[3,2-c]pyridine]",> 70%,1 to 5 µM
"Cc1nc(-c2cccnc2)sc1N1CCc2[nH]c(-c3c(F)cccc3F)cc2C1 [Example 18, 5-[2-(2,6-Difluoro-phenyl)-4,5,6,7-tetrahydro-1H-pyrrolo[3,2-c]pyridin-5-yl]-4-methyl-2-pyridin-3-yl-thiazole]",> 70%,< 0.5 µM
"Cc1cc(S(C)(=O)=O)ncc1N1CCc2[nH]c(-c3c(F)cccc3F)c(Br)c2C1 [Example 91, 3-Bromo-2-(2,6-difluoro-phenyl)-5-(4-methyl-6-methylsulfonyl-pyridin-3-yl)-4,5,6,7-tetrahydro-1H-pyrrolo[3,2-c]pyridine]",50 to 70%,1 to 5 µM
"CNS(=O)(=O)c1ccc(N2CCc3[nH]c(-c4c(F)cccc4F)cc3C2)c(C)c1 [Example 114, 4-[2-(2,6-Difluoro-phenyl)-4,5,6,7-tetrahydro-1H-pyrrolo[3,2-c]pyridin-5-yl]-N,3-dimethyl-benzenesulfonic acid amide]",< 50%,< 0.5 µM
"Cc1cc(C(F)(F)F)ncc1N1CCc2[nH]c(C3CCOCC3)cc2C1 [Example 93, 5-[4-Methyl-6-(trifluoromethyl)-pyridin-3-yl]-2-tetrahydro-pyran-4-yl-4,5,6,7-tetrahydro-1H-pyrrolo[3,2-c]pyridine]",> 70%,1 to 5 µM
"Cc1cc(S(C)(=O)=O)ncc1N1CCc2[nH]c(-c3ccc(F)cc3F)cc2C1 [Example 78, 2-(2,4-Difluoro-phenyl)-5-(4-methyl-6-methylsulfonyl-pyridin-3-yl)-4,5,6,7-tetrahydro-1H-pyrrolo[3,2-c]pyridine]",> 70%,0.5 to 1 µM
"CCn1nc(C2(C(F)(F)F)CC2)cc1N1CCc2[nH]c(-c3c(F)cccc3F)cc2C1 [Example 124, 2-(2,6-Difluoro-phenyl)-5-[2-ethyl-5-[1-(trifluoromethyl)-cyclopropyl]-2H-pyrazol-3-yl]-4,5,6,7-tetrahydro-1H-pyrrolo[3,2-c]pyridine]",< 50%,< 0.5 µM
"CCOc1cc(C(F)(F)F)ncc1N1CCc2[nH]c(-c3c(F)cccc3F)cc2C1 [Example 116, 2-(2,6-Difluoro-phenyl)-5-[4-ethoxy-6-(trifluoromethyl)-pyridin-3-yl]-4,5,6,7-tetrahydro-1H-pyrrolo[3,2-c]pyridine]",> 70%,< 0.5 µM
"Cc1cc(C2CC2)ncc1N1CCc2[nH]c(-c3c(F)cccc3F)cc2C1 [Example 75, 5-(6-Cyclopropyl-4-methyl-pyridin-3-yl)-2-(2,6-difluoro-phenyl)-4,5,6,7-tetrahydro-1H-pyrrolo[3,2-c]pyridine]",> 70%,1 to 5 µM
"CCOc1cc(OC)c(N2CCc3[nH]c(-c4c(F)cccc4F)cc3C2)cn1 [Example 143, 2-(2,6-Difluoro-phenyl)-5-(6-ethoxy-4-methoxy-pyridin-3-yl)-4,5,6,7-tetrahydro-1H-pyrrolo[3,2-c]pyridine]",< 50%,1 to 5 µM
"Cc1cc(OC(F)(F)F)ncc1N1CCc2[nH]c(-c3c(F)cccc3F)cc2C1 [Example 111, 2-(2,6-Difluoro-phenyl)-5-[4-methyl-6-(trifluoromethyloxy)-pyridin-3-yl]-4,5,6,7-tetrahydro-1H-pyrrolo[3,2-c]pyridine]",< 50%,< 0.5 µM
"CCn1nc(C2CC2)cc1N1CCc2[nH]c(-c3c(F)cccc3F)cc2C1 [Example 126, 5-(5-Cyclopropyl-2-ethyl-2H-pyrazol-3-yl)-2-(2,6-difluoro-phenyl)-4,5,6,7-tetrahydro-1H-pyrrolo[3,2-c]pyridine]",> 70%,0.5 to 1 µM
"CCNS(=O)(=O)c1ccc(N2CCc3[nH]c(-c4c(F)cccc4F)cc3C2)c(C)c1 [Example 131, 4-[2-(2,6-Difluoro-phenyl)-4,5,6,7-tetrahydro-1H-pyrrolo[3,2-c]pyridin-5-yl]-N-ethyl-3-methyl-benzenesulfonic acid amide]",< 50%,1 to 5 µM
"Cc1sc(S(C)(=O)=O)nc1N1CCc2[nH]c(-c3c(F)cccc3F)cc2C1 [Example 133, 4-[2-(2,6-Difluoro-phenyl)-4,5,6,7-tetrahydro-1H-pyrrolo[3,2-c]pyridin-5-yl]-5-methyl-2-methylsulfonyl-thiazole]",> 70%,0.5 to 1 µM
"Cc1cc(S(C)(=O)=O)ncc1N1CCc2[nH]c(-c3ccccc3F)cc2C1 [Example 79, 2-(2-Fluorophenyl)-5-(4-methyl-6-methylsulfonyl-pyridin-3-yl)-4,5,6,7-tetrahydro-1H-pyrrolo[3,2-c]pyridine]",> 70%,0.5 to 1 µM
"Cc1cc(C#N)cnc1N1CCc2[nH]c(-c3c(F)cccc3F)cc2C1 [Example 68, 6-[2-(2,6-Difluoro-phenyl)-4,5,6,7-tetrahydro-1H-pyrrolo[3,2-c]pyridin-5-yl]-5-methyl-nicotinonitrile]",> 70%,< 0.5 µM
"Cc1cc([S+](C)[O-])ccc1N1CCc2[nH]c(-c3c(F)cccc3F)cc2C1 (stereo not drawn) [Example 87, 2-(2,6-Difluoro-phenyl)-5-[2-methyl-4-(methylsulfinyl)-phenyl]-4,5,6,7-tetrahydro-1H-pyrrolo[3,2-c]pyridine]",> 70%,1 to 5 µM
"Cc1cc(S(C)(=O)=O)ncc1N1CCc2[nH]c(C3CCCCC3)cc2C1 [Example 72, 2-Cyclohexyl-5-(4-methyl-6-methylsulfonyl-pyridin-3-yl)-4,5,6,7-tetrahydro-1H-pyrrolo[3,2-c]pyridine]",> 70%,< 0.5 µM
"Cc1nc(N2CCc3[nH]c(-c4c(F)cccc4F)cc3C2)ccc1Br [Example 25, 5-(5-Bromo-6-methyl-pyridin-2-yl)-2-(2,6-difluoro-phenyl)-4,5,6,7-tetrahydro-1H-pyrrolo[3,2-c]pyridine]",< 50%,1 to 5 µM
"Cc1cc(S(=O)(=O)N2CCCCC2)ccc1N1CCc2[nH]c(-c3c(F)cccc3F)cc2C1 [Example 119, 2-(2,6-Difluoro-phenyl)-5-[2-methyl-4-(piperidin-1-ylsulfonyl)-phenyl]-4,5,6,7-tetrahydro-1H-pyrrolo[3,2-c]pyridine]",< 50%,1 to 5 µM
"Cc1sc(-c2cnccn2)nc1N1CCc2[nH]c(-c3c(F)cccc3F)cc2C1 [Example 26, 4-[2-(2,6-Difluoro-phenyl)-4,5,6,7-tetrahydro-1H-pyrrolo[3,2-c]pyridin-5-yl]-5-methyl-2-pyrazin-2-yl-thiazole]",> 70%,< 0.5 µM
"Cc1cc(S(C)(=O)=O)c(F)cc1N1CCc2[nH]c(-c3c(F)cccc3F)cc2C1 [Example 101, 2-(2,6-Difluoro-phenyl)-5-(5-fluoro-2-methyl-4-methylsulfonyl-phenyl)-4,5,6,7-tetrahydro-1H-pyrrolo[3,2-c]pyridine]",> 70%,< 0.5 µM
"COC1(c2cc(N3CCc4[nH]c(-c5c(F)cccc5F)cc4C3)n(C)n2)CC1 [Example 137, 2-(2,6-Difluoro-phenyl)-5-[5-(1-methoxy-cyclopropyl)-2-methyl-2H-pyrazol-3-yl]-4,5,6,7-tetrahydro-1H-pyrrolo[3,2-c]pyridine]",> 70%,1 to 5 µM
"Cc1ccc(Cl)cc1N1CCc2[nH]c(-c3c(F)cccc3Cl)cc2C1 [Example 64, 2-(2-Chloro-6-fluoro-phenyl)-5-(5-chloro-2-methyl-phenyl)-4,5,6,7-tetrahydro-1H-pyrrolo[3,2-c]pyridine]",< 50%,1 to 5 µM
"Cc1cc(C#N)cnc1N1CCc2[nH]c(C3CCCCC3)cc2C1 [Example 102, 6-(2-Cyclohexyl-4,5,6,7-tetrahydro-1H-pyrrolo[3,2-c]pyridin-5-yl)-5-methyl-nicotinonitrile]",> 70%,0.5 to 1 µM
"Cc1cc(C(F)(F)F)ncc1N1CCc2[nH]c(-c3cncc(F)c3C)cc2C1 [Example 141, 2-(5-Fluoro-4-methyl-pyridin-3-yl)-5-[4-methyl-6-(trifluoromethyl)-pyridin-3-yl]-4,5,6,7-tetrahydro-1H-pyrrolo[3,2-c]pyridine]",> 70%,< 0.5 µM
"Cc1cc([S+](C)[O-])ncc1N1CCc2[nH]c(-c3c(F)cccc3F)cc2C1 (stereo not drawn) [Example 70, 2-(2,6-Difluoro-phenyl)-5-[4-methyl-6-(methylsulfinyl)-pyridin-3-yl]-4,5,6,7-tetrahydro-1H-pyrrolo[3,2-c]pyridine]",> 70%,1 to 5 µM
